By melting point is commonly meant the temperature, or range, at which the solid turns liquid. `COc1cc(C)c(S(=O)(=O)N(C)C)cc1[N+](=O)[O-]` [Example 3, 4-Methoxy-2-methyl-5-nitro(N,N-dimethyl)benzenesulfonamide]: the melting point lay within 130 to 132 °C. Regarding `Cc1cc(C)c(S(=O)(=O)N(C)C)cc1[N+](=O)[O-]` [Example 2, 2,4-Dimethyl-5-nitro(N,N-dimethyl)benzenesulfonamide], the melting point turned out to be 113 °C.
